This is an account of results in PubChem BioAssay (NCI).

Some test systems named below: A549 NSCLC; BT-549 breast; HOP-62 NSCLC; HOP-92 NSCLC; HS 578T breast; LOX IMVI melanoma; MDA-MB-435; NCI-H522 lung; SK-MEL-5 melanoma; SW-620 colon.
Holding throughout (test): NCI-60 cell line screen, 48 h

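Following 48 hours of exposure in 96-well plates, responses at five concentrations were used to interpolate endpoints linearly. GI50 is the concentration that inhibits growth by half. TGI: concentration producing complete growth inhibition.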

For the compound `Cn1nc(C(F)(F)F)cc1-c1c[nH]c(OCc2ccc(Cl)cc2)c(-c2ccc(Cl)c(C(F)(F)F)c2)c1=O`, the GI50 is 1.45 µM with A549 NSCLC; 1.04 µM in the test on BT-549 breast; 1.3 µM in the test with HOP-62 NSCLC; 0.224 µM with HOP-92 NSCLC; 1.07 µM in the test with HS 578T breast; 1.23 µM in the test with LOX IMVI melanoma. In addition, the GI50 with MDA-MB-435 was 1.37 µM; in the test with NCI-H522 lung, 0.552 µM; in the test on SK-MEL-5 melanoma, 0.568 µM; in the test with SW-620 colon, 1.44 µM. Further, the TGI with A549 NSCLC was greater than 50 µM; in the test with BT-549 breast, 3.31 µM; with HOP-62 NSCLC, 3.55 µM; with HOP-92 NSCLC it was 1.54 µM; in the test with HS 578T breast it was 3.85 µM; in the test on LOX IMVI melanoma, 3.56 µM. The TGI in the test with MDA-MB-435 was found to be 6.75 µM; in the test on NCI-H522 lung, 6.15 µM; in the test on SK-MEL-5 melanoma it was 1.34 µM; in the test with SW-620 colon, 7.74 µM.

As for `Cn1cc(C2=C(c3c4n(c5ccccc35)CCC(CN)C4)C(=O)NC2=O)c2ccccc21` (stereo not given), the GI50 was 3.05 µM in the test on A549 NSCLC; 4.06 µM in the test with BT-549 breast; 3.12 µM in the test with HOP-62 NSCLC; 5.25 µM in the test with HOP-92 NSCLC; 1.55 µM in the test with HS 578T breast; 3.83 µM in the test with LOX IMVI melanoma. For the same compound, the GI50 was 2.52 µM in the test with MDA-MB-435, 3.84 µM in the test on NCI-H522 lung, 3.99 µM with SK-MEL-5 melanoma and 2.96 µM with SW-620 colon. The TGI worked out at 7.83 µM with A549 NSCLC; 7.75 µM with BT-549 breast; 6.62 µM with HOP-62 NSCLC; 12.3 µM in the test with HOP-92 NSCLC; 8.2 µM in the test on HS 578T breast; 7.53 µM in the test with LOX IMVI melanoma. In addition, the TGI in the test with MDA-MB-435 was 5.97 µM; in the test on NCI-H522 lung, 7.46 µM; in the test with SK-MEL-5 melanoma, 7.82 µM; in the test on SW-620 colon, 6.69 µM.

For `C=C1C(=O)O[C@H]2[C@H]1CC/C(C=Nc1c(N)cc(C(F)(F)F)cc1C(F)(F)F)=C\CC[C@@]1(C)O[C@@H]21`, the GI50 in the test on A549 NSCLC was 1.95 µM; in the test on BT-549 breast, 1.47 µM; in the test with HOP-62 NSCLC, 2 µM; with HOP-92 NSCLC it was 1.22 µM; with HS 578T breast it was 1.67 µM; in the test with LOX IMVI melanoma it was 1.07 µM. For the same compound, the GI50 was 2.03 µM in the test with MDA-MB-435, 1.66 µM in the test with NCI-H522 lung, 1.35 µM with SK-MEL-5 melanoma and 1.23 µM with SW-620 colon. Also, the TGI in the test on A549 NSCLC was 3.74 µM; in the test with BT-549 breast it was 3.17 µM; with HOP-62 NSCLC, 4.19 µM; with HOP-92 NSCLC it was 3.09 µM; in the test with HS 578T breast it was 7.45 µM; in the test with LOX IMVI melanoma it was 2.3 µM. Also, the TGI in the test on MDA-MB-435 worked out at 6.05 µM; with NCI-H522 lung, 4.13 µM; in the test on SK-MEL-5 melanoma it was 2.67 µM; in the test with SW-620 colon it was 2.95 µM.

In the case of `N#Cc1c(N2CCOCC2)nc(=S)[nH]c1-c1ccccc1`, the GI50 in the test on A549 NSCLC is 21.3 µM; in the test on BT-549 breast, 8.78 µM; in the test with HOP-62 NSCLC, 7.93 µM; in the test on HOP-92 NSCLC, 3.94 µM; in the test on HS 578T breast, 7.65 µM; in the test on LOX IMVI melanoma, 23.5 µM. Besides, the GI50 in the test on MDA-MB-435 was 29.7 µM; in the test with NCI-H522 lung, 13.8 µM; with SK-MEL-5 melanoma it was 9.36 µM; in the test with SW-620 colon, 74.2 µM. The TGI was greater than 100 µM with A549 NSCLC; greater than 100 µM with BT-549 breast; 68.1 µM in the test with HOP-62 NSCLC; greater than 100 µM with HOP-92 NSCLC; 60.7 µM in the test on HS 578T breast; greater than 100 µM with LOX IMVI melanoma. Further, the TGI in the test on MDA-MB-435, with NCI-H522 lung, in the test on SK-MEL-5 melanoma and in the test on SW-620 colon was greater than 100 µM throughout.

`O=c1[nH]c(=O)c2cc3cc(C4CC(O)C(CO)O4)ccc3cc2[nH]1` (stereo not given): the GI50 with A549 NSCLC, with BT-549 breast, in the test with HOP-62 NSCLC, in the test with HOP-92 NSCLC, in the test on HS 578T breast and in the test on LOX IMVI melanoma was greater than 100 µM each time. Besides, the GI50 with MDA-MB-435 is greater than 100 µM; in the test with NCI-H522 lung it was 17.5 µM; with SK-MEL-5 melanoma it was greater than 100 µM; with SW-620 colon, greater than 100 µM. For the same compound, the TGI in the test with A549 NSCLC, in the test on BT-549 breast, with HOP-62 NSCLC, with HOP-92 NSCLC, with HS 578T breast and with LOX IMVI melanoma was greater than 100 µM each time. Moreover, the TGI in the test on MDA-MB-435 is greater than 100 µM; with NCI-H522 lung, 87.8 µM; with SK-MEL-5 melanoma it was greater than 100 µM; in the test on SW-620 colon it was greater than 100 µM.

As to `CN(C)CCCCC(C(=O)CBr)(c1ccccc1)c1ccccc1`, the GI50 in the test with A549 NSCLC was 4.93 µM; with BT-549 breast, 1.48 µM; in the test with HOP-62 NSCLC it was 8.06 µM; in the test on HOP-92 NSCLC, 1.84 µM; in the test with HS 578T breast, 3.11 µM; in the test on LOX IMVI melanoma it was 1.44 µM. For the same compound, the GI50 is 2.45 µM with MDA-MB-435, 1.25 µM with NCI-H522 lung, 2.53 µM with SK-MEL-5 melanoma and 1.67 µM in the test with SW-620 colon. The TGI with A549 NSCLC turned out to be 18.8 µM; in the test on BT-549 breast, 3.47 µM; in the test on HOP-62 NSCLC, 23.6 µM; with HOP-92 NSCLC it was 4.71 µM; in the test on HS 578T breast it was 22.7 µM; with LOX IMVI melanoma it was 2.99 µM. Besides, the TGI with MDA-MB-435 came to 10.5 µM; in the test with NCI-H522 lung, 3.4 µM; in the test with SK-MEL-5 melanoma, 8.68 µM; in the test with SW-620 colon it was 5.58 µM.

As to `COc1cc(/C(=C2/O[C@@H]([C@H]3COC(C)(C)O3)[C@H]3OC(C)(C)O[C@@H]23)c2ccc3ccccc3c2)cc(OC)c1OC`, the GI50 with A549 NSCLC is 3.09 µM; in the test with BT-549 breast, 3.22 µM; in the test with HOP-62 NSCLC, 9.78 µM; with HOP-92 NSCLC, 2.67 µM; in the test on HS 578T breast it was 4.44 µM; in the test on LOX IMVI melanoma it was 3.39 µM. Besides, the GI50 with MDA-MB-435 is 3.61 µM; with NCI-H522 lung, 2.27 µM; in the test with SK-MEL-5 melanoma it was 4.07 µM; in the test on SW-620 colon, 4.31 µM. Besides, the TGI stood at 9.55 µM with A549 NSCLC; 8.1 µM in the test with BT-549 breast; 31.4 µM with HOP-62 NSCLC; 13.3 µM in the test on HOP-92 NSCLC; 53.4 µM with HS 578T breast; 19.8 µM in the test on LOX IMVI melanoma. For the same compound, the TGI is 17.5 µM in the test on MDA-MB-435, 6.54 µM in the test on NCI-H522 lung, 15.4 µM in the test on SK-MEL-5 melanoma and greater than 100 µM with SW-620 colon.
